Measured values reported in patent publication US6787125B1, “Compound screening method” (priority 1999, dated 2004).

Experiments:
[1] = tested on: C. elegans pharynx; assay: Pharynx pumping assay (calcein-AM), strain not specified: dilution series, insecticides, Tocris library; assay type: in vivo; conditions: for effect of compounds of known insecticidal activity on the pharynx pumping rate: FIGS. 18 to 21; for effect on pharynx pumping: general statement
Method: (§1) The pumping rate of the pharynx is measured indirectly by adding a marker molecule precursor such as calcein-AM to the medium and measuring the formation of marker dye in the C. elegans gut. Calcein-AM is cleaved by esterases present in the C. elegans gut to release calcein, which is a fluorescent molecule. […] Therefore by measuring the accumulation of calcein in the nematode gut, detectable by fluorescence, it is possible to determine the pumping rate of the pharynx.
(§2) To perform the pharynx pumping screen with calcein-AM, a concentration of between 1 and 100 μM calcein-AM is added into the medium. Preferably 5 to 10 μM calcein-AM is used. Fluorescence is measured using a multi-well plate reader (Victor2, Wallac Oy, Finland) with following settings: Ex/Em=485/530.
To determine the sensitivity of the pharynx pumping assay, dilution series were made for some chemical substances. These include the chemicals clomipramine, tamoxifen, BP554, pimazide and thapsigargin. A concentration range was made from less than 1 μM up to 100 μM, and the pumping assay was repeated as described in previous examples.

[2] = tested on: C. elegans pharynx; conditions: Kerr et al.; cited from earlier work
[3] = tested on: mutant C. elegans strain with a constitutively pumping pharynx; assay: Pharynx pumping assay (calcein-AM fluorescence), screen for inhibitors; assay type: in vivo; conditions: compounds and worms incubated approximately 1 hour, then calcein-AM, one further hour
Excerpt: Depending on the specific assay which it is desired to perform, different C. elegans strains can be used. Screens to select for chemical substances inhibiting the pumping rate of the C. elegans pharynx are generally performed with mutant C. elegans strains which have a constitutively pumping pharynx. Wild-type worms can also be used in this screen, but the mutants worms are preferred. […] The selected mutant C. elegans with the constitutively pumping pharynx pumps medium into the gut at a constant rate and reduction/rescue of this phenotype can easily be scored, which facilitates the detection and selection of chemical substances.
as §1, §2
160 well known drugs selected from the pharmacopoeia were used in a screen to test the performance of the pharynx pumping method. The drugs tested belong to a variety of categories, which included analgesics, antidiabetics, antiarrythmics, calcium channel blockers, diuretics, cholinesterase inhibitors, proton pump inhibitors and antidepressants.
The drugs were randomly distributed over the wells of two 96-well multi-well plates. The pumping rate of the C. elegans pharynx was measured using calcein-AM as described in Example 2.
In a first assay, the substrate calcein-AM was added to the medium at the same time as the worms and the compounds. The fluorescence was measured after approximately one hour.
In a variation of this protocol, compounds and worms are added to the medium first and incubated for approximately 1 hour. After this incubation period that allowed for the chemical substances to activate or to inhibit the pumping rate of the pharynx, calcein-AM was added. The plates where then further incubated for one hour prior to fluorescence measurement in the microtiter plate reader.

[4] = tested on: wild-type worms; assay: Movement assay (autofluorescence), wild-type worms; assay type: in vivo, C. elegans; conditions: for effect on movement of wild-type worms, compound alone: FIG. 8, 100% represents normal movement of wild-type worms
Method: Advanced multi-well plate readers are able to detect sub-regions of the wells of multi-well plates. By using these plate readers it is possible to take measurements in selected areas of the surface of the wells of the multi-well plates. If the area of measurement is centralized, so that only the middle of the well is measured, a difference in nematode autofluorescence (fluorescence which occurs in the absence of any external marker molecule) or optical density can be observed in the wells containing nematodes that move normally as compared to wells containing nematodes that are defective for movement. For the wells containing the nematodes that move normally, a low level of autofluorescence or optical density will be observed, whilst a high level of autofluorescence or optical density can be observed in the wells that contain the nematodes that are defective in movement. Optical density is measured using a variation of the platelet aggregation assay, which is well known in the art. Using the MRX revelation device from Dynex (USA), optical density can be measured at multiple points per well, showing the precipitation pattern of the nematodes.
This is because the mutant is mutated in the acetylcholine esterases, resulting in high concentrations of acetylcholine in the synapses. Neostigmine, a well known acetylcholine esterase inhibitor, was added to wild-type worms distributed over the wells of a multi-well plate and submitted to the movement assay after approximately 2 hours.
As receptor antagonist, hexamethonium will also result in a decrease of movement, as it prevents proper signalling.
In another experiment, wild-type worms were contacted with inhibitory concentrations of neostigmine to prevent movement. After a small incubation period, various concentrations of hexamethonium were added and the wells were submitted to the movement assay (measurement of autofluorescence). […] At very high concentrations of hexamethonium (although lower than the concentrations shown in last panel) a toxic effect is observed, resulting in a decrease in movement. This toxic effect is probably due to the presence of high concentrations of both neostigmine and hexamethonium.

[5] = tested on: ace-1; ace-2 double mutant; assay: Movement assay, ace-1; ace-2 double mutant; assay type: in vivo, C. elegans; conditions: increasing concentrations of hexamethonium, absence of neostigmine; compared with the neostigmine experiment
Method: An analogous experiment was performed with the ace-1; ace-2 double mutant. In this experiment, increasing concentrations of hexamethonium were added to the wells in the absence of neostigmine.

[6] = concentration range from less than 1 μM up to 100 μM

## CC/C(=C(\c1ccccc1)c1ccc(OCCN(C)C)cc1)c1ccccc1 [Tamoxifen]
[1]; [6]
  effect on pharynx pumping rate, dose-response curve: inhibitors

## NCCc1c[nH]c2ccc(O)cc12 [serotonin]
[2]
  effect on pumping, seen as fluorescence of GFP-calmodulin: enhancers of pumping

## c1ccc(-c2cnc(-c3ccccc3)o2)cc1 [2,5-diphenyloxazole]
[1]; both in wild-type worms and in constitutive pumping worms
  effect on pumping rate of the pharynx: inhibitor of the pumping rate of the pharynx

## C=C(C)[C@H]1Cc2c(ccc3c2O[C@@H]2COc4cc(OC)c(OC)cc4[C@@H]2C3=O)O1 [Rotenone]
[1]
  effect of compounds of known insecticidal activity on the pharynx pumping rate: reduction in the pharynx pumping rate

## COP(=O)(OC)C(O)C(Cl)(Cl)Cl (stereo not shown) [Metrifonate]
[3]
  activity on the pharynx pumping rate found with the variation of the protocol: detection

## CN(C)C(=O)Oc1cccc([N+](C)(C)C)c1 [neostigmine, Neostigmine]
[4]
  effect on movement of wild-type worms, compound alone: clear decrease in movement

## ClC1=C(Cl)[C@]2(Cl)[C@@H]3[C@@H]4C[C@@H]([C@H]5O[C@@H]45)[C@@H]3[C@@]1(Cl)C2(Cl)Cl [Dieldrin]
[1]
  effect of compounds of known insecticidal activity on the pharynx pumping rate: reduction in the pharynx pumping rate

## c1ccc(N2CCN(CCCOc3ccc4c(c3)OCO4)CC2)cc1 [BP554]
[1]; [6]
  effect on pharynx pumping rate, dose-response curve: inhibitors

## N=C(N)S/C=C\C(=O)O [ZAPA]
[3]
  activity on the pharynx pumping rate found with the variation of the protocol: detection

## CN1[C@@H]2CC[C@H]1C[C@@H](OC(=O)C(CO)c1ccccc1)C2 (stereo partly shown) [Atropine]
[3]
  activity on the pharynx pumping rate found with the variation of the protocol: detection

## Ivermectin
[1]
  effect of compounds of known insecticidal activity on the pharynx pumping rate: reduction in the pharynx pumping rate
[2]
  effect on pumping, seen as fluorescence of GFP-calmodulin: inhibitors of pumping

## C[S+](C)[O-] [DMSO]
[1]; solvent, at higher concentrations (FIG. 5)
  toxic effect in pharynx pumping dose-response curve: toxic effect

## C/C=C(/C)C(=O)O[C@H]1C(C)=C2[C@H]([C@@H]1OC(=O)CCCCCCC)[C@@](C)(OC(C)=O)C[C@H](OC(=O)CCC)[C@@]1(O)[C@H]2OC(=O)[C@@]1(C)O [Thapsigargin]
[1]; at low concentration
  effect on pharynx pumping rate, dose-response curve: enhancement of the pumping
[1]; [6]
  effect on pharynx pumping rate, dose-response curve: decrease of the pumping rate
[1]
  effect on pharynx pumping: decrease in the pharynx pumping rate
[4]; observation, method not stated
  effect on movement: decreased movement

## CN(C)CCCN1c2ccccc2CCc2ccc(Cl)cc21 [Clomipramine]
[1]; [6]
  effect on pharynx pumping rate, dose-response curve: enhancer

## CN(C)CCC=C1c2ccccc2COc2ccccc21 [Doxepin]
[1]
  effect on pharynx pumping: enhancer of pharynx pumping

## Picrotoxin
[1]
  effect of compounds of known insecticidal activity on the pharynx pumping rate: reduction in the pharynx pumping rate

## CN1[C@@H]2CC[C@H]1C[C@@H](OC(=O)[C@H](CO)c1ccccc1)C2 [L-Hyoscyamine]
[3]
  activity on the pharynx pumping rate found with the variation of the protocol: detection

## C[N+](C)(C)CCCCCC[N+](C)(C)C [hexamethonium, Hexamethonium]
[5]
  movement of ace-1; ace-2 double mutant: comparable
[4]
  effect on movement of wild-type worms, compound alone: represses the movement of wild-type worms, but significant less than neostigmine
[4]; increasing concentrations of hexamethonium
  movement of wild-type worms in presence of inhibitory concentrations of neostigmine: more movement
[4]; very high concentrations of hexamethonium together with neostigmine
  toxic effect in movement assay: toxic effect
